# Read-outs that look alike come from different tables or passages of the source. Square brackets hold non-standard residues; d marks the D form. Peptide text beside a SMILES is read from it. Gly(N(CH2)2(3-indolyl)) = O=C(O)CNCCc1c[nH]c2ccccc12; Nspe = C[C@H](NCC(=O)O)c1ccccc1; Nlys = NCCCCNCC(=O)O
# Experiments:
# [1] = tested on: MRC-5 human lung fibroblast cells; assay type: cell-based
# Protocol: 4. Cell culture and cytotoxicity test using MTS assay
# (Seoul, South Korea), human keratinocytes (HaCaT) were provided by the Skin Research Institute R&D Center of Amore Pacific Company (Yongin, South Korea). All cells were grown in Dulbecco's modified Eagle’s medium (DMEM) supplemented with 10% fetal bovine serum at 37 °C in an atmosphere containing 5% CO2. The 3-(4,5-dimethylthiazol-2- […]
# assays were used to determine the effects of peptoids on cell growth.[4] Aliquots (100 µL) of media containing 1.3×10^4 MRC-5 cells/mL or 3×10^4 HaCaT cells/mL were distributed into each well of a 96-well plate (Eppendorf, Hamburg, Germany). The cells were allowed to attach and were grown in a humidified atmosphere containing 5% CO2 at 37 °C for 24 h.
# When the cell density reached approximately 70% confluency, the medium was replaced with serial dilutions of the peptoid stock in DMEM and incubated for an additional 24 h. At this point, 20 µL of the CellTiter 96 aqueous non-radioactive cell proliferation assay reagent (Promega, Madison, WI, USA), which contains the tetrazolium compound, was added to each well. Plates were incubated for 4 h at 37 °C to allow time for metabolism. The MTS-formazan products in viable cells were measured at 490 nm using a microplate reader, and the percentage of cell viability (%) was calculated by comparing readings to the values of untreated wells. Percentage values of cell viability were calculated as A/(A control)×100, where A is the absorbance of the test well and A control is the average absorbance of wells containing untreated cells. […]
# E. coli ATCC 25922 [2] = experiment: Thioflavin S fluorescence imaging of intracellular aggregation; assay type: cell-based; conditions: 29 and peptoid 1 at 4 × MIC, control peptides 2 × MIC
# E. faecalis KCTC 3511 = assay type: cell-based
# E. coli ATCC 25922 [3] = assay type: cell-based, Escherichia coli
# Summary of the method: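 Broth microdilution in cation-adjusted MHB2 containing 0.001% acetic acid and 0.02% BSA, inoculum ≈2–5 × 10^5 CFU mL^−1 from a 3–4 h secondary culture. Peptoids tested at six two-fold dilutions from 25 µM, in triplicate. MIC taken as the lowest concentration preventing visible turbidity.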
# [4] = S9 fraction stability assay; assay type: in vitro ADME; conditions: NADPH, 100 mM Tris-HCl pH 7.4, […] MgCl2, 37 °C, 24 h incubation, HPLC or LC-MS, compared to pexiganan
# Protocol: 200 μL NPN dye was added to wells of a 96 well plate to produce a final concentration of 10 μM, and the background fluorescence was recorded (λex = 350 nm, λem = 420 nm). Aliquots of peptoids were added to the well, and fluorescence was recorded as a function of time until there was no further increase in fluorescence. Increases of the permeability of the outer membrane after the addition of peptoids was reflected by increased fluorescence values as a result of NPN incorporation into the membrane.
# The permeability of the inner membrane was determined using E. coli ML-35 cells […]
# The intact bacterial inner membrane is non-permeable to o-nitrophenyl-β-D-galactopyranoside (OPNG), a chromogenic substrate of the β-galactosidase.
# Following damage to the inner membrane, OPNG enters the cells and is metabolized by β-galactosidase creating a chromogenic […]. […] The hydrolysis of ONPG and generation of o-nitrophenol over time were monitored as absorbance change at 405 nm following the addition of peptoids.
# The resistance of peptoids against metabolic enzyme degradation was measured by an S9 fraction assay. […] Quenched samples were centrifuged for 5 minutes at 1200 rpm and analyzed by analytical HPLC or LC-MS.
# Protein extraction and quantification using Bradford assay […]
# P. aeruginosa MDR-198 = assay type: cell-based
# E. coli ESBL 63103 = assay type: cell-based
# S. aureus MRSA C623 = assay type: cell-based
# [5] = Table S2, broth dilution, MHB2, 37 °C 24 h, max 25 µM, mean of triplicate
# [6] = Table S3, counter-ion exchange series (TFA, HCl, AcOH salts), mean of triplicate
Structure (SMILES),"LC50 MRC-5 ([1]; MTS assay, 24 h exposure in DMEM, concentration killing 50% of cells) [µM]",Th S fluorescence (intracellular biomass aggregation) (E. coli ATCC 25922 [2]),"MIC E. faecalis KCTC 3511 (E. faecalis KCTC 3511; gram-positive pathogenic strain, mean of triplicates) [µM]",MIC E. coli ATCC25922 (E. coli ATCC 25922 [3]; [5]) [µM],MIC E. coli ATCC25922 (E. coli ATCC 25922 [3]; [6]) [µM],stability in human liver S9 fraction [4],MIC P. aeruginosa MDR-198 (P. aeruginosa MDR-198) [µM],LC50 MRC-5 [1] [µM],MIC E. coli ESBL 63103 (E. coli ESBL 63103) [µM],MIC E. faecalis KCTC 3511 (E. faecalis KCTC 3511; KCTC 3511) [µM],MIC E. coli ATCC25922 (E. coli ATCC 25922 [3]; ATCC 25922) [µM],MIC S. aureus MRSA C623 (S. aureus MRSA C623) [µM],"MIC E. coli ATCC25922 (E. coli ATCC 25922 [3]; broth dilution, MHB2 with 0.001% acetic acid and 0.02% BSA, 2–5 × 10^5 CFU/mL, 37 °C 24 h, max 25 µM, mean of triplicates) [µM]"
"C[C@@H](c1ccccc1)N(CC(N)=O)C(=O)CN(C(=O)CN(CCCCN)C(=O)CN(C(=O)CN(C(=O)CN(CCCCN)C(=O)CN(C(=O)CN(C(=O)CN(CCCCN)C(=O)CN(C(=O)CN(C(=O)CNCCCCN)[C@@H](C)c1ccccc1)[C@@H](C)c1ccccc1)[C@@H](C)c1ccccc1)[C@@H](C)c1ccccc1)[C@@H](C)c1ccccc1)[C@@H](C)c1ccccc1)[C@@H](C)c1ccccc1 [peptoid 1, reference compound] (H-[Nlys][Nspe][Nspe][Nlys][Nspe][Nspe][Nlys][Nspe][Nspe][Nlys][Nspe][Nspe]-NH2)",8.1,enhanced Th S fluorescence,0.8,6.3,6.3,superior stability,,,,,,,
C[C@@H](c1ccccc1)N(CC(=O)N(CCCCN)CC(=O)N(CC(=O)N(CC(=O)N(CCCCN)CC(=O)N(CC(=O)N(CC(=O)N(CCCCN)CC(=O)N(CCc1c[nH]c2ccccc12)CC(=O)N(CCc1c[nH]c2ccccc12)CC(N)=O)[C@@H](C)c1ccccc1)[C@@H](C)c1ccccc1)[C@@H](C)c1ccccc1)[C@@H](C)c1ccccc1)C(=O)CN(C(=O)CNCCCCN)[C@@H](C)c1ccccc1 [peptoid 11] (H-[Nlys][Nspe][Nspe][Nlys][Nspe][Nspe][Nlys][Nspe][Nspe][Nlys][Gly(N(CH2)2(3-indolyl))][Gly(N(CH2)2(3-indolyl))]-NH2),,,,6.3,,,6.3 to 12.5,6.9,3.1 to 6.3,<0.8,3.1,3.1 to 6.3,
C[C@@H](c1ccccc1)N(CC(=O)N(CCCCN)CC(=O)N(CCc1c[nH]c2ccccc12)CC(=O)N(CCc1c[nH]c2ccccc12)CC(N)=O)C(=O)CN(CCCCN)C(=O)CN(CCCCN)C(=O)CN(C(=O)CN(C(=O)CN(CCCCN)C(=O)CN(C(=O)CN(C(=O)CNCCCCN)[C@@H](C)c1ccccc1)[C@@H](C)c1ccccc1)[C@@H](C)c1ccccc1)[C@@H](C)c1ccccc1 [peptoid 29] (H-[Nlys][Nspe][Nspe][Nlys][Nspe][Nspe][Nlys][Nlys][Nspe][Nlys][Gly(N(CH2)2(3-indolyl))][Gly(N(CH2)2(3-indolyl))]-NH2),,significantly increased emission,,6.3,6.3,superior stability,6.3 to 12.5,,≥25,3.1,,3.1 to 6.3,6.3

# Reference: PMC10460844, “Real‐Time Monitoring of Multitarget Antimicrobial Mechanisms of Peptoids Using Label‐Free Imaging with Optical Diffraction Tomography” (Advanced Science, 2023)
